Data taken from patent US20030176689A1, “Inhibitors of hepatitis C virus protease” (priority 2001, published 2003).
Square brackets hold non-standard residues; d marks the D form. Ends that are not written are not given here. Peptide text beside a SMILES is read from it. Cha = N[C@@H](CC1CCCCC1)C(=O)O; Pen = CC(C)(S)[C@H](N)C(=O)O

Experiments:
NS3 and wt NS4A = NS3 and wt NS4A (Hepatitis C virus genotype 1a, UniProt P27958); assay: Inhibition of cleavage of 5A-pNA by NS3 and wt NS4A; format: biochemical, HCV; settings: for inhibition of cleavage of 5A-pNA by NS3 and wt NS4A: FIG. 12
Description: Again, lower case letters indicate the D-amino acid. Cha represents cyclohexylalanine. The peptides were assayed for inhibition of cleavage of 5A-pNA by NS3 and wt NS4A.

HCV = settings: PBMCs from an HCV-infected patient, 4 days, NS3 Western blot; preliminary, first experiment
Description: This induces production of HCV in these cells. The PBMCs were grown in the presence of varying concentrations of Peptides 1, 3, or 5 for 4 days, and then harveted, lysed, and analyzed by SDS-PAGE followed by Western blot using monoclonal antibodies that specifically bind HCV NS3 protease. The blots were then stripped and probed with antibodies for SHP-1 as a loading control.

HCV NS3 protease domain = target: T1, HCV NS3 protease domain (Hepatitis C virus genotype 1a, UniProt P27958); assay: FAC-MS (frontal affinity chromatography with in-line MS) binding to immobilized NS3
T1 construct: immobilization of the NS3 protease domain on streptavidin coated beads; made in house; host or cells: E. coli
From the text: An assay using frontal affinity chromatography (FAC) with an in-line mass spectrometer (MS) as described by Schriemer et al. 1998 Agnew. Chem. Int. Ed. 37, 3383-3387 (referred to as FAC-MS) was adapted to identify NS3 protease inhibitors. Briefly, a HCV NS3 protease domain was cloned into a site in a vector that allows for the recombinant NS3 protein to be biotinylated when expressed in E. coli. This provides for immobilization of the NS3 protease domain on streptavidin coated beads which are packed into a miniaturized column. The column is connected in-line to a mass spectrometer. This arrangement facilitates assaying combinatorial compounds individually from a library of peptides for activity in binding the immobilized NS3 protease domain. As the library is continually infused through the column, each compound produces a sigmoidal curve as its elution profile.
The inventors first examined the ability of mutant NS4A peptides to bind to NS3 using the FAC-MS assay described in Example 1. The sequence of the peptides described here is described by the wild-type residue modified, the position of the residue in the wildtype NS4A polypeptide, and the residue substituted at that position. […] “Pen” refers to Penacillamine; “chA” refers to β-cyclohexylalanine; “t” refers to “tert” (so that, for example, “t-L” refers to tert-leucine. […]

NS3 [1] = target: T2, NS3 (Hepatitis C virus genotype 1a, UniProt P27958); assay: Activation of NS3 by mutant NS4A peptides using 5A/5B as the substrate; format: biochemical, HCV; settings: substrate 5A/5B; NS3 batch used for wild-type and V23 mutant peptides
Description: (§1) Binding of the peptides was then analyzed by enzyme kinetics to detect whether the mutated NS4A peptides activated NS3-catalysed cleavage of substrates individually. Two NS3 substrates were used: 5ApNA (which contains the P side residues (six of them) of the substrate linked to para-nitroaniline) and 5A/5B (which is the natural cleavage junction that is found between the NS5A and NS5B proteins) using conventional methods (see, e.g., Landro et. al. 1997, Biochemistry 36 p9340-9348; and “Enzyme Kinetics” by Irwin Segel pub: Wiley and Sons, New York 1975 Chapter 5). Values in the tables were obtained by extrapolating the Km and kcat values obtained for substrates at several concentrations of NS4A mutant peptides to infinite NS4A concentration. The Km and kcat values were obtained from double reciprocal plots of initial velocity measurements made at several concentrations of substrate and a constant NS4Aconcentration. Peptide concentrations used in calculations in Table 3 are based on those supplied by the facility that synthesized the peptides at the inventors' direction.

NS3 [2] = target: T2, NS3; assay: Activation of NS3 by mutant NS4A peptides using 5A-pNA as the substrate; format: biochemical, HCV; settings: for kcat: substrate 5A-pNA, extrapolated to infinite NS4A concentration
Description: as §1

NS3 protease = NS3 protease (Hepatitis C virus genotype 1a, UniProt P27958); assay: Rates of NS3 in the presence of short NS4A peptides; format: biochemical, HCV; settings: substrate 5A-pNA subsaturating; 66 to 360 μM peptide
Description: The ability of the short peptides to activate the NS3 protease was tested at several concentrations between 66 and 360 μM peptide. The concentration of substrate 5A-pNA was subsaturating.

Sequence of NS3 and wt NS4A (P27958 1027-1207): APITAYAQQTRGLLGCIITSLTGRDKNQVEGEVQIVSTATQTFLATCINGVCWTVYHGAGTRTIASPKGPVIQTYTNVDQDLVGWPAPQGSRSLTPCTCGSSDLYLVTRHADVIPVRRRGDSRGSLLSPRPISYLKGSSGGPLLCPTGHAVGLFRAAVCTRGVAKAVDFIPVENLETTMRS
Sequence of NS3 protease (P27958 1027-1207): as above
T2 sequence (P27958 1027-1207): as above
T1 sequence (P27958 1027-1208): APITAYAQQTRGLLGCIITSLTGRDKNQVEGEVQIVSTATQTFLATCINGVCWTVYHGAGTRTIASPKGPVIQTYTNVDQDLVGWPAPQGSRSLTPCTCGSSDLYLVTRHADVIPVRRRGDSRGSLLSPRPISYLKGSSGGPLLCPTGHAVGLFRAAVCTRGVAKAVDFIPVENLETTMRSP

Row | Compound | Kd (HCV NS3 protease domain) | kcat (NS3 [2]) | Rate (NS3 protease) | other results
1 | CC[C@H](C)[C@H](NC(=O)[C@H](CC1CCCCC1)NC(=O)[C@H](CCCNC(=N)N)NC(=O)[C@H](NC(=O)[C@H](CC1CCCCC1)NC(=O)[C@@H](N)CCCNC(=N)N)C(C)C)C(=O)N[C@@H](CC1CCCCC1)C(N)=O [Peptide 3, R(Cha)vR(Cha)I(Cha)-NH2] (H-R[Cha][dV]R[Cha]I[Cha]-NH2; N-terminus assumed) | – | – | – | IC50 (NS3 and wt NS4A): 163 ± 5 µM; inhibition of cleavage of 5A-pNA by NS3 and wt NS4A (NS3 and wt NS4A): inhibited this reaction; inhibition of replication of HCV in tissue culture (HCV): inhibited replication of HCV in tissue culture
2 | CC[C@H](C)[C@H](NC(=O)[C@H](CCCNC(=N)N)NC(=O)CNC(=O)[C@@H](NC(=O)[C@@H](NC(=O)[C@@H](NC(=O)[C@@H](NC(=O)[C@H](CO)NC(=O)CNC(=O)[C@H](CCCCN)NC(=O)[C@@H](N)CCCCN)C(C)(C)S)C(C)C)[C@@H](C)CC)C(C)C)C(=O)N[C@H](C(=O)N[C@@H](CC(C)C)C(=O)N[C@@H](CO)C(=O)NCC(=O)N[C@@H](CCCCN)C(=O)O)C(C)C [Peptide V23Pen] (H-KKGS[Pen]VIVGRIVLSGK-OH; N-terminus and C-terminus assumed) | 4.7 µM | 0.0145 ± 0.0015 s⁻¹ | – | kcat (NS3 [1]): 0.113 ± 0.01 s⁻¹
3 | Ac-DEMEED-OH [Ac-DEMEED-OH] | – | – | – | FAC-MS elution profile (late elution indicates NS3 binding) (HCV NS3 protease domain; Ac-DEMEEX-OH library randomized at P1, FIG. 2): eluted very late; FAC-MS elution time with a known protease inhibitor added to the library (HCV NS3 protease domain; competitive assay, FIG. 3): shifted forward
4 | FFW(Cha)vR(Cha)-NH2 [Peptide 5] | – | – | – | precipitation in the reaction mixture (NS3 and wt NS4A): caused precipitation in the reaction mixture; inhibition of cleavage of 5A-pNA by NS3 and wt NS4A (NS3 and wt NS4A): inhibited this reaction
5 | IVGRIVL [IVGRIVL] | 103 µM | – | 1.80 µmol/min/mg | –
6 | KKGSCVIVGRIVLSGK [Peptide V23C] | 4.8 µM | 0.0197 ± 0.00017 s⁻¹ | – | kcat (NS3 [1]): 0.124 ± 0.00033 s⁻¹
7 | KKGSFVIVGRIVLSGK [Peptide V23F] | 3.7 µM | 0.00782 ± 0.0005 s⁻¹ | – | FAC-MS elution (later elution = more tightly bound to NS3) (HCV NS3 protease domain; Val23 substituted NS4A peptides, FIG. 4): eluted last; kcat (NS3 [1]): 0.0883 ± 0.005 s⁻¹; activation of NS3 catalysed cleavage, rank among peptides mutated at the same position (NS3 [2]; position 23 or position 26 mutants): poorest
8 | KKGSLVIVGRIVLSGK [Peptide V23L] | 5.1 µM | 0.0157 ± 0.00075 s⁻¹ | – | –
9 | KKGSVVIVGRIVLSGK [Wild-type, KKGSVVIVGRIVLSGK, reference compound] | – | – | 37.4 µmol/min/mg | –
10 | VGRIVL | – | – | 1.70 µmol/min/mg | –
11 | VIVGRIVL [VIVGRIVL] | 88 µM | – | 1.76 µmol/min/mg | –
12 | VVIVGRI [VVIVGRI] | 103 µM | – | 1.88 µmol/min/mg | –
13 | W(Cha)vR(Cha)I(Cha)-NH2 [Peptide 1] | – | – | – | precipitation in the reaction mixture (NS3 and wt NS4A): caused precipitation in the reaction mixture; inhibition of cleavage of 5A-pNA by NS3 and wt NS4A (NS3 and wt NS4A): inhibited this reaction
